The text below walks through data of patent publication US7722876B2 (priority 2002, dated 2010).

Where two headings read alike, the source gives them in different places. Where a SMILES comes first, the peptide text is derived from it.

Series [1] concerns C.albicans UP10 cells. The conditions noted are these: 6 h.
For series [2], the system named is LLC-MK2 rhesus monkey kidney cells.
The test system of series [3] is fluconazole-resistant (AIDS 68) C.albicans. Format: in vivo, Candida albicans. As to conditions: rats, 100 μg fluconazole at 1, 24, 48 h.

The term IC50 denotes the concentration that inhibits the measured activity by half. `CC(C)[C@H](NC(=O)CNC(=O)[C@H](Cc1ccc(O)cc1)NC(=O)CN)C(=O)N[C@@H](CC(N)=O)C(N)=O` [Heavy chain CDR-1] (H-GYGVN-NH2; N-terminus and C-terminus assumed) returned an IC50 in series [1] of 267 nM.

Regarding `CC[C@H](C)[C@H](NC(=O)[C@@H](N)CCSC)C(=O)N[C@@H](Cc1c[nH]c2ccccc12)C(=O)NCC(=O)N[C@@H](CC(=O)O)C(=O)NCC(=O)N[C@@H](CO)C(=O)N[C@H](C(=O)N[C@@H](CC(=O)O)C(=O)N[C@@H](Cc1ccc(O)cc1)C(=O)N[C@@H](CC(N)=O)C(=O)N[C@@H](CO)C(=O)N[C@@H](C)C(=O)N[C@@H](CC(C)C)C(N)=O)[C@@H](C)O` [Heavy chain CDR-2] (H-MIWGDGSTDYNSAL-NH2; N-terminus and C-terminus assumed), the midpoint of inhibition in series [1], the IC50, lay at 117 nM.

`CSCC[C@H](NC(=O)[C@H](C)NC(=O)[C@H](Cc1ccc(O)cc1)NC(=O)[C@@H](N)CC(C)C)C(N)=O` [Heavy chain CDR-3] (H-LYAM-NH2; N-terminus and C-terminus assumed): in series [1], the 50% inhibitory concentration (IC50) worked out at 109 nM.

As to `CSCC[C@H](NC(=O)[C@@H](NC(=O)[C@@H](NC(=O)[C@H](CCCCN)NC(=O)[C@H](C)N)C(C)C)[C@@H](C)O)C(=O)N[C@H](C(=O)N[C@@H](CS)C(=O)N[C@@H](CO)C(=O)N[C@@H](C)C(=O)N[C@@H](CO)C(N)=O)[C@@H](C)O` [KM] (H-AKVTMTCSAS-NH2), the “toxic effects on cell viability” value in series [2] was “no toxic effects”.

Regarding `CSCC[C@H](NC(=O)[C@H](Cc1ccc(O)cc1)NC(=O)[C@H](CO)NC(=O)[C@@H](NC(=O)[C@H](CO)NC(=O)[C@H](CO)NC(=O)[C@H](CO)NC(=O)[C@H](C)NC(=O)[C@@H](N)CO)C(C)C)C(=O)N[C@@H](Cc1ccc(O)cc1)C(N)=O` [Light chain CDR-1] (H-SASSSVSYMY-NH2; N-terminus and C-terminus assumed), the concentration for half-maximal inhibition (IC50) in series [1] turned out to be 692 nM.

Consider `CC(C)C[C@H](NC(=O)[C@H](CC(N)=O)NC(=O)[C@H](CO)NC(=O)[C@@H](NC(=O)[C@@H](N)CC(C)C)[C@@H](C)O)C(=O)N[C@@H](C)C(=O)N[C@@H](CO)C(N)=O` [Light chain CDR-2] (H-LTSNLAS-NH2; N-terminus and C-terminus assumed), for which half-maximal inhibition in series [1] (IC50) was put at 234 nM.

The compound `NC(=O)CC[C@H](NC(=O)[C@@H](N)CCC(N)=O)C(=O)N[C@@H](Cc1c[nH]c2ccccc12)C(=O)N[C@@H](CO)C(=O)N[C@@H](CO)C(=O)N[C@@H](CC(N)=O)C(=O)N1CCC[C@H]1C(=O)N[C@@H](Cc1ccc(O)cc1)C(N)=O` [Light chain CDR-3] (H-QQWSSNPY-NH2; N-terminus and C-terminus assumed) came in with an IC50 in series [1] of 200 nM.

In series [1], `CSCC[C@H](NC(=O)[C@@H](NC(=O)[C@@H](NC(=O)[C@H](CCCCN)NC(=O)[C@H](C)N)C(C)C)[C@@H](C)O)C(=O)N[C@H](C(=O)N[C@@H](CS)C(=O)N[C@@H](CO)C(=O)N[C@@H](C)C(N)=O)[C@@H](C)O` [SEQ ID 14] (H-AKVTMTCSA-NH2; N-terminus and C-terminus assumed) came in with a half-maximal inhibitory concentration (IC50) of 50000 nM.

On to `CSCC[C@H](NC(=O)[C@@H](NC(=O)[C@@H](NC(=O)[C@H](CCCCN)NC(=O)[C@H](C)N)C(C)C)[C@@H](C)O)C(=O)N[C@H](C(=O)N[C@@H](CS)C(=O)N[C@@H](CO)C(N)=O)[C@@H](C)O` [SEQ ID 15] (H-AKVTMTCS-NH2; N-terminus and C-terminus assumed), for which the IC50 in series [1] was 23000 nM.

For `CSCC[C@H](NC(=O)[C@@H](NC(=O)[C@@H](NC(=O)[C@H](CCCCN)NC(=O)[C@H](C)N)C(C)C)[C@@H](C)O)C(=O)N[C@H](C(=O)N[C@@H](CS)C(N)=O)[C@@H](C)O` [SEQ ID 16] (H-AKVTMTC-NH2; N-terminus and C-terminus assumed), it took 600 nM to reach half-maximal inhibition in series [1] (IC50).

On to `CSCC[C@H](NC(=O)[C@@H](NC(=O)[C@@H](NC(=O)[C@H](CCCCN)NC(=O)[C@H](C)N)C(C)C)[C@@H](C)O)C(=O)N[C@H](C(N)=O)[C@@H](C)O` [SEQ ID 17] (H-AKVTMT-NH2; N-terminus and C-terminus assumed), for which, in series [1], the half-maximal inhibitory concentration (IC50) is 730000 nM.

On to `CSCC[C@H](NC(=O)[C@@H](NC(=O)[C@@H](NC(=O)[C@H](CCCCN)NC(=O)[C@H](C)N)C(C)C)[C@@H](C)O)C(N)=O` [SEQ ID 18] (H-AKVTM-NH2; N-terminus and C-terminus assumed), for which half-maximal inhibition in series [1] (IC50) was put at 25000 nM.

`CC(C)[C@H](NC(=O)[C@H](CCCCN)NC(=O)[C@H](C)N)C(=O)N[C@H](C(N)=O)[C@@H](C)O` [SEQ ID 19] (H-AKVT-NH2; N-terminus and C-terminus assumed) yielded an IC50 in series [1] of 710000 nM.

Compound `CC(C)[C@H](NC(=O)[C@H](CCCCN)NC(=O)[C@H](C)N)C(N)=O` [SEQ ID 20] (H-Ala-Lys-Val-NH2; N-terminus and C-terminus assumed) gave an IC50 in series [1] of 10000 nM.

Regarding `OC(Cn1cncn1)(Cn1cncn1)c1ccc(F)cc1F` [fluconazole], the “C. albicans vaginal CFU (×10^3) (±SD)” value in series [3] (day 0) is recorded as >100 ×10^3; in series [3] (day 7), 64 ± 6 ×10^3; in series [3] (day 14), 48 ± 3 ×10^3; in series [3] (day 28) it was 12 ± 4 ×10^3.
